Measurements from patent US20230233538A1, “COMPOSITION FOR TREATING CORONAVIRUS DISEASE-19, COMPRISING PHENANTHROINDOLIZIDINE AND PHENANTHROQUI[…] DERIVATIVES, OPTICAL ISOMER THEREOF, OR PHARMACEUTICALLY ACCEPTABLE SALTS THEREOF AS ACTIVE INGREDIENT” (priority 2020, published 2023).
pEC50: −log10 of the molar value. Like-named read-outs stand apart in the source and are kept apart here.

Assays:
[1] = system: SARS-CoV-2; test: microbe, parasite or virus in culture; format: cell-based; settings: for pEC50: read-out: Effective Concentration 50 (EC50), 50% virus proliferation inhibitory concentration
[2] = in vitro; settings: African green monkey, Cytotoxic Concentration 50 (CC50)
[3] = system: Vero CCL-81 cells
[4] = Severe acute respiratory syndrome coronavirus 2, 48 h

**Q.** What does the source list for `COc1cc2c3c(c4ccc(NS(C)(=O)=O)cc4c2cc1OC)CN1CCC[C@@H]1C3` [Compound 1, (R)-N-(2,3-dimethoxy-9,11,12,13,13a,14-hexahydrodibenzo-[f,h]pyrrolo[1,2-b]isoquinolin-6-yl)methanesulfonamide]?
**A.** pEC50 [1, 4]: 7.46; CC50 [2]: 1820 nM; Selectivity Index (SI) [3]: 52

**Q.** With `COc1cc2c3c(c4ccc(NS(C)(=O)=O)cc4c2cc1OC)CN1CCCC[C@@H]1C3` [Compound 2, (R)-N-(2,3-dimethoxy-11,12,13,14,14a,15-hexahydro-9H-dibenzo[f,h]pirido[1,2-b]isoquinolin-6-yl)methanesulfonamide] as the compound, how does the “fold greater effect (virus proliferation inhibitory ability) compared to Remdesivir” value [1] read?
**A.** ~1,700 fold

**Q.** What about the pEC50 [1, 4] of the same compound?
**A.** 7.89

**Q.** And the CC50 [2]?
**A.** 126 nM

**Q.** And the “Selectivity Index (SI)” value [3]?
**A.** 10

**Q.** Which “fold greater effect (virus proliferation inhibitory ability) compared to Remdesivir” value [1] does the source give for `COC(=O)Nc1ccc2c3c(c4cc(OC)c(OC)cc4c2c1)CC1CCCCN1C3` (centres unmarked) [Compound 3, methyl(2,3-dimethoxy-11,12,13,14,14a,15-hexahydro-9H-dibenzo[f,h]pirido[1,2-b]isoquinolin-6-yl)carbamate] here?
**A.** ~1,300 fold

**Q.** And the pEC50 [1, 4]?
**A.** 7.77

**Q.** And the CC50 [2]?
**A.** 317 nM

**Q.** And the “Selectivity Index (SI)” value [3]?
**A.** 19

**Q.** With `CCC(CC)COC(=O)[C@H](C)N[P@](=O)(OC[C@H]1O[C@@](C#N)(c2ccc3c(N)ncnn23)[C@H](O)[C@@H]1O)Oc1ccccc1` [Remdesivir, reference compound] as the compound, how does the pEC50 [1, 4] read?
**A.** 4.66

**Q.** What about the pEC50 [1] of the same compound?
**A.** 4.66

**Q.** What about the CC50 [2] of the same compound?
**A.** 172000 nM

**Q.** And the “Selectivity Index (SI)” value [3]?
**A.** 7.8

**Q.** What about the CC50 ([3]; African green monkey) of the same compound?
**A.** 172000 nM

**Q.** What does the source list for `COc1ccc2c3c(c4cc(OC)c(OC)cc4c2c1)C[C@H]1CCCN1C3` [antofine, reference compound]?
**A.** pEC50 [1]: 7.43; CC50 [2]: 872 nM; Selectivity Index (SI) [3]: 24

**Q.** With `COc1ccc2c3c(c4cc(OC)c(OC)cc4c2c1)C[C@H]1CCCCN1C3` [cryptopleurin, reference compound] as the compound, how does the pEC50 [1] read?
**A.** 7.96
